Reference: patent US7166635B2, “3-imino-2-indolones for the treatment of depression and/or anxiety” (H. Lundbeck A/S, priority 2002, dated 2007)

Target: T1, human GalR3 receptor (Homo sapiens, UniProt O60755)
T1 construct: expressed in transfected cells; membranes
T1 sequence (O60755 1-368): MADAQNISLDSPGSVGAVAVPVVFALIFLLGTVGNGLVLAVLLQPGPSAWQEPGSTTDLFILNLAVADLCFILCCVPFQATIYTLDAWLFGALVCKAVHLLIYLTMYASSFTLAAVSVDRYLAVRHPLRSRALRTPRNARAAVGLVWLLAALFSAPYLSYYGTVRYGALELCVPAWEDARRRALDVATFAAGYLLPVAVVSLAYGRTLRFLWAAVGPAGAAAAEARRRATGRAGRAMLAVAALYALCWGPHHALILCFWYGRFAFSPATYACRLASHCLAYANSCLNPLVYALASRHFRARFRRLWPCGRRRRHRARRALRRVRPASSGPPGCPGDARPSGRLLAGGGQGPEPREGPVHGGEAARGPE
Experiment: Radioligand binding at cloned human GalR3 receptor
Conditions: Binding Data; membranes of LM(tk-) cells stably transfected with human GalR3
Procedure: The present invention provides for a method of determining the binding affinity of a GalR3 antagonist, wherein the GalR3 antagonist is dissolved in a “suitable solvent”. A “suitable solvent” means one which permits the measurement of binding affinity of the GalR3 antagonist to the human GalR3 receptor at concentrations less than 1 μM, preferably less than 100 nM. Examples of solvents include, but are not limited to, DMSO, ethanol, N,N-dimethylacetamide, or water. For indolones, the preferred solvent is 3% DMSO (final concentration in the assay). For any other type of compounds, the preferred solvent is the solvent which permits the measurement of binding affinity of a GalR3 antagonist at the lowest concentration.
COS-7 cells were grown on 150 mm plates in D-MEM with supplements (Dulbecco's Modified Eagle Medium with 10% bovine calf serum, 4 mM glutamine, 100 units/ml penicillin, 100 μg/ml streptomycin) at 37° C. with 5% CO2. Stock plates of COS-7 cells were trypsinized and split 1:6 every 3–4 days. Human embryonic kidney 293 cells were grown on 150 mm plates in D-MEM with supplements (minimal essential medium) with Hanks' salts and supplements (Dulbecco's Modified Eagle Medium with 10% bovine calf serum, 4 mM glutamine, 100 units/ml penicillin, 100 μg/ml streptomycin) at 37° C. with 5% CO2. Stock plates of 293 cells were trypsinized and split 1:6 every 3–4 days. Mouse fibroblast LM(tk-) cells were grown on 150 mm plates in D-MEM with supplements (Dulbecco's Modified Eagle Medium with 10% bovine calf serum, 4 mM glutamine, 100 units/mL penicillin, 100 μg/mL streptomycin) at 37° C. with 5% CO2. Stock plates of LM(tk-) cells were trypsinized and split 1:10 every 3–4 days. Chinese Hamster Ovary (CHO) cells were grown on 150 mm plates in HAM's F12 medium with (HAM's F-12 with 10% bovine calf serum, 4 mM glutamine, 100 units/mL penicillin, 100 μg/mL streptomycin) at 37° C. with 5% CO2. Stock plates of CHO cells were trypsinized and split 1:8 every 3–4 days. LM(tk-) cells were stably transfected with the human GalR3 receptor.
cDNAs for the human and rat GalR3 receptors were transfected with a G-418 resistant gene into the mouse fibroblast LM(tk-) cell line by a calcium phosphate transfection method (Cullen, 1987).
Membranes were harvested from stably transfected LM(tk-) cells. Adherent cells were washed twice in ice-cold phosphate buffered saline (138 mM NaCl, 8.1 mM Na2HPO4, 2.5 mM KCl, 1.2 mM KH2PO4, 0.9 mM CaCl2, 0.5 mM MgCl2, pH 7.4) and lysed by sonication in ice-cold sonication buffer (20 mM Tris-HCl, 5 mM EDTA, pH 7.7). Large particles and debris were cleared by low speed centrifugation (200×g, 5 min, 4° C.). Membranes were collected from the supernatant fraction by centrifugation (32,000×g, 18 min, 4° C.), washed with ice-cold hypotonic buffer, and collected again by centrifugation (32,000×g, 18 min, 4° C.). The final membrane pellet was resuspended by sonication into a small volume of ice-cold binding buffer (˜1 ml for every 5 plates: 10 mM NaCl, 20 mM HEPES, 0.22 mM KH2PO4, 1.26 mM CaCl2, 0.81 mM MgSO4, pH 7.4). Protein concentration was measured by the Bradford method (Bradford, 1976) using Bio-Rad Reagent, with bovine serum albumin as a standard. Membranes were held on ice for up to one hour and used fresh, or flash frozen and stored in liquid nitrogen. Membranes were prepared similarly from CHO cells.
The methods to obtain the cDNA of the receptors, express said receptors in heterologous systems, and carry out assays to determine binding affinity are described as follows.
Binding assays were performed according to the following published method: human GALR3 (PCT International Publication No. WO 98/15570).

Row | Compound | Ki
1 | O=C1/C(=N\c2cccc(C(F)(F)F)c2)c2ccc(O)cc2N1c1ccccc1 [Example 4, 6-HYDROXY-1-PHENYL-3-{[3-(TRIFLUOROMETHYL)PHENYL]IMINO}-1,3-DIHYDRO-2H-INDOL-2-ONE] | 55 nM
2 | O=C1/C(=N\c2cccc(C(F)(F)F)c2)c2ccccc2N1c1ccccc1O [Example 8, 1-(2-HYDROXYPHENYL)-3-{[3-(TRIFLUOROMETHYL)PHENYL]IMINO}-1,3-DIHYDRO-2H-INDOL-2-ONE] | 68 nM
3 | O=C1/C(=N\c2cccc(C(F)(F)F)c2)c2cc(O)ccc2N1c1ccccc1 [Example 9, 5-HYDROXY-1-PHENYL-3-{[3-(TRIFLUOROMETHYL)PHENYL]IMINO}-1,3-DIHYDRO-2H-INDOL-2-ONE] | 58 nM
4 | O=C1/C(=N\c2cccc(C(F)(F)F)c2)c2ccccc2N1c1cccc(O)c1 [Example 7, 1-(3-HYDROXYPHENYL)-3-{[3-(TRIFLUOROMETHYL)PHENYL]IMINO}-1,3-DIHYDRO-2H-INDOL-2-ONE] | 28 nM
5 | O=C1/C(=N\c2ccc3c(c2)OC(F)(F)O3)c2ccccc2N1c1ccc(O)cc1 [Example 1, 3-[(2,2-DIFLUORO-1,3-BENZODIOXOL-5-YL)IMINO]-1-(4-HYDROXYPHENYL)-1,3-DIHYDRO-2H-INDOL-2-ONE] | 72 nM
6 | O=C1/C(=N\c2cc(F)cc(F)c2)c2ccccc2N1c1ccc(O)cc1 [Example 6, 3-[(3,5-DIFLUOROPHENYL)IMINO]-1-(4-HYDROXYPHENYL)-1,3-DIHYDRO-2H-INDOL-2-ONE] | 41 nM

The remaining lines, values ahead:

Row | Ki | Compound
7 | 15 nM | COc1ccc(N2C(=O)/C(=N\c3ccc(Cl)c(Cl)c3)c3ccccc32)cn1 [Example 2, 3-[(3,4-DICHLOROPHENYL)IMINO]-1-(6-METHOXY-3-PYRIDINYL)-1,3-DIHYDRO-2H-INDOL-2-ONE]
8 | 20 nM | COc1ccc(N2C(=O)C(=Nc3ccc(Cl)c(Cl)c3)c3cc(Cl)ccc32)cn1 (racemic) [Example 3, 5-CHLORO-3-[(3,4-DICHLOROPHENYL)IMINO]-1-(6-METHOXY-3-PYRIDINYL)-1,3-DIHYDRO-2H-INDOL-2-ONE]
9 | 31 nM | COc1ccc(N2C(=O)/C(=N\c3cccc(C(F)(F)F)c3)c3ccccc32)cn1 [Example 10, 3-[(3-TRIFLUOROMETHYLPHENYL)IMINO]-1-(6-METHOXY-3-PYRIDINYL)-1,3-DIHYDRO-2H-INDOL-2-ONE]
10 | 27 nM | O=C1/C(=N\c2ccc(Cl)c(Cl)c2)c2ccccc2N1c1ccc(O)cc1 [Example 5, 3-[(3,4-DICHLOROPHENYL)IMINO]-1-(4-HYDROXYPHENYL)-1,3-DIHYDRO-2H-INDOL-2-ONE]
